Each structure is given as a SMILES string.

This assay deals with STING (Homo sapiens, UniProt Q86WV6, G230A/H232R/R293Q/R71H). The experiment in a line: STING reporter assay in THP1-Dual KO-IFNAR2 cells (2′3′cGAMP stimulation, luciferase reporter). In kind it is cell-based. The following applies: 15 μM 2′3′cGAMP stimulation, 24 h, read-out: Pharmaron, THP1_IFNAR2 STING 24 h Luci Normalized: GeoMean EC50. The procedure: STING pathway activation by the compounds described herein was measured using THP1-Dual™ cells (KO-IFNAR2).
Chain of STING (Q86WV6 whole entry R71H/G230A/H232R/R293Q): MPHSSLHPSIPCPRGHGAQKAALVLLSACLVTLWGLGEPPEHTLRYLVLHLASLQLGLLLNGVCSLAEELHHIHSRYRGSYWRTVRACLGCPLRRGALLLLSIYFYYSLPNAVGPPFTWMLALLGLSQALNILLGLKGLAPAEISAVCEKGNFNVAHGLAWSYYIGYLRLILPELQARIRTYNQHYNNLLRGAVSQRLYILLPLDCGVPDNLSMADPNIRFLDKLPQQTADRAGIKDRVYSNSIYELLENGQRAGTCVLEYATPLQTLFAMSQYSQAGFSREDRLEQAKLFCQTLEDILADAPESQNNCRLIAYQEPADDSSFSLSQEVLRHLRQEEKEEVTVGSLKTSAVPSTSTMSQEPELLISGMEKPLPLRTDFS
THP1-Dual™ KO-IFNAR2 Cells (obtained from InvivoGen) were maintained in RPMI, 10% FCS, 5 ml P/S, 2 mM L-glut, 10 mM Hepes, and 1 mM sodium pyruvate. Compounds were spotted in empty 384 well tissue culture plates (Greiner 781182) by Echo for a final concentration of 0.0017-100 μM. Cells were plated into the TC plates at 40 μL per well, 2×10E6 cells/mL. For activation with STING ligand, 2′3′cGAMP (MW 718.38, obtained from Invivogen), was prepared in Optimem media.
The following solutions were prepared for each 1×384 plate: • Solution A: 2 mL Optimem with one of the following stimuli: • 60 μL of 10 mM 2′3′cGAMP→150 μM stock • Solution B: 2 mL Optimem with 60 μL Lipofectamine 2000→Incubate 5 min at RT
2 mL of solution A and 2 ml Solution B was mixed and incubated for 20 min at room temperature (RT). 20 μL of transfection solution (A+B) was added on top of the plated cells, with a final 2′3′cGAMP concentration of 15 μM. The plates were then centrifuged immediately at 340 g for 1 minute, after which they were incubated at 37° C., 5% CO2, >98% humidity for 24 h. Luciferase reporter activity was then measured. EC50 values were calculated by using standard methods known in the art.
Luciferase reporter assay: 10 μL of supernatant from the assay was transferred to white 384-plate with flat bottom and squared wells. One pouch of QUANTI-Luc™ Plus was dissolved in 25 mL of water. 100 μL of QLC Stabilizer per 25 mL of QUANTI-Luc™ Plus solution was added. 50 μL of QUANTI-Luc™ Plus/QLC solution per well was then added. Luminescence was measured on a Platereader (e.g., Spectramax I3X (Molecular Devices GF3637001)).
Luciferase reporter activity was then measured. EC50 values were calculated by using standard methods known in the art.
(A reporter such as luciferase makes a cellular process visible.)
As to `CC(=O)Nc1c[nH]c2ccc(OCC(F)(F)CN3CCC(F)(F)CC3)cc12` [Compound 112, N-(5-(3-(4,4-difluoropiperidin-1-yl)-2,2-difluoropropoxy)-1H-indol-3-yl)acetamide], the EC50 (in general, the concentration that produces a half-maximal response) was 5000 to 100000 nM. The same measure for `CC(=O)Nc1c[nH]c2ccc(OCCc3ccc(C(F)(F)F)nc3)cc12` [Compound 113, N-(5-(2-(6-(trifluoromethyl)pyridin-3-yl)ethoxy)-1H-indol-3-yl)acetamide]: 1000 to 5000 nM. The same measure for `CC(=O)Nc1c[nH]c2ccc(CCC3CCN(CC(F)(F)F)CC3)cc12` [Compound 114, N-(5-(2-(1-(2,2,2-trifluoroethyl)piperidin-4-yl)ethyl)-1H-indol-3-yl)acetamide]: 200 to 1000 nM. Then `CC(=O)Nc1c[nH]c2ccc(COc3ccc(C(F)(F)F)cc3)cc12` [Compound 115, N-(5-((4-(trifluoromethyl)phenoxy)methyl)-1H-indol-3-yl)acetamide], with 40 to 200 nM. On to `CC(=O)Nc1c[nH]c2ccc(Oc3ccc(C(F)(F)F)cn3)cc12` [Compound 116, N-(5-((5-(trifluoromethyl)pyridin-2-yl)oxy)-1H-indol-3-yl)acetamide], for which the EC50 was 5000 to 100000 nM. The same measure for `COCC(=O)Nc1c[nH]c2ccc(OCCC3CCN(CC(F)(F)F)CC3)cc12` [Compound 117, 2-methoxy-N-(5-(2-(1-(2,2,2-trifluoroethyl)piperidin-4-yl)ethoxy)-1H-indol-3-yl)acetamide]: 200 to 1000 nM. The same measure for `CC(C)(O)CC(=O)Nc1c[nH]c2ccc(OCCC3CCN(CC(F)(F)F)CC3)cc12` [Compound 118, 3-hydroxy-3-methyl-N-(5-(2-(1-(2,2,2-trifluoroethyl)piperidin-4-yl)ethoxy)-1H-indol-3-yl)butanamide]: 200 to 1000 nM. In the case of `CC(=O)Nc1c[nH]c2ccc(OCC3CCN(CC(F)(F)F)CC3)cc12` [Compound 119, N-(5-((1-(2,2,2-trifluoroethy|)piperidin-4-yl)methoxy)-1H-indol-3-yl)acetamide], the EC50 was 5000 to 100000 nM. Then `CC(=O)Nc1c[nH]c2ccc(OC[C@@H]3[C@H]4CN(CC(F)(F)F)C[C@@H]34)cc12` [Compound 120, N-(5-(((1R,5S,6r)-3-(2,2,2-trifluoroethyl)-3-azabicyclo[3.1.0]hexan-6-yl)methoxy)-1H-indol-3-yl)acetamide], with 5000 to 100000 nM; and `COCCCC(=O)Nc1c[nH]c2ccc(OCCC3CCN(CC(F)(F)F)CC3)cc12` [Compound 121, 4-methoxy-N-(5-(2-(1-(2,2,2-trifluoroethyl)piperidin-4-yl)ethoxy)-1H-indol-3-yl)butanamide], with 200 to 1000 nM; and `CC(=O)Nc1c[nH]c2ccc(OCCC3CCN(CC(F)(F)F)CC3)cc12` [Compound 122, N-(5-(2-(1-(2,2,2-trifluoroethyl)piperidin-4-yl)ethoxy)-1H-indol-3-yl)acetamide], with 200 to 1000 nM. Then `CC(=O)Nc1c[nH]c2ccc(Oc3ccc(C(F)(F)F)nc3)cc12` [Compound 123, N-(5-((6-(trifluoromethyl)pyridin-3-yl)oxy)-1H-indol-3-yl)acetamide], with 5000 to 100000 nM; and `CC(=O)Nc1c[nH]c2ccc(Oc3ccc(C(F)(F)F)cc3)cc12` [Compound 124, N-(5-(4-(trifluoromethyl)phenoxy)-1H-indol-3-yl)acetamide], with 1000 to 5000 nM; and `CC(=O)Nc1c[nH]c2ccc(CNc3ccc(C(F)(F)F)nc3)cc12` [Compound 125, N-(5-(((6-(trifluoromethyl)pyridin-3-yl)amino)methyl)-1H-indol-3-yl)acetamide], with 200 to 1000 nM. Take `CC(=O)Nc1c[nH]c2ccc(CCNc3ccc(C(F)(F)F)nc3)cc12` [Compound 126, N-(5-(2-((6-(trifluoromethyl)pyridin-3-yl)amino)ethyl)-1H-indol-3-yl)acetamide]: the EC50 was in the range of 1000 to 5000 nM. Then `CC(=O)Nc1c[nH]c2ccc(CCOc3ccc(C(F)(F)F)cc3)cc12` [Compound 127, N-(5-(2-(4-(trifluoromethyl)phenoxy)ethyl)-1H-indol-3-yl)acetamide], with 40 to 200 nM; and `CC(=O)Nc1c[nH]c2ccc(Cc3ccc(C(F)(F)F)cc3)cc12` [Compound 128, N-(5-(4-(trifluoromethyl)benzyl)-1H-indol-3-yl)acetamide], with 200 to 1000 nM. The same measure for `O=C(Nc1c[nH]c2ccc(OCCC3CCN(CC(F)(F)F)CC3)cc12)C1CCC1` [Compound 129, N-(5-(2-(1-(2,2,2-trifluoroethyl)piperidin-4-yl)ethoxy)-1H-indol-3-yl)cyclobutanecarboxamide]: 200 to 1000 nM; for `CCC(=O)Nc1c[nH]c2ccc(COc3ccc(C(F)(F)F)cc3)cc12` [Compound 130, N-(5-((4-(trifluoromethyl)phenoxy)methyl)-1H-indol-3-yl)propionamide]: 200 to 1000 nM; for `CC(CCc1ccc(C(F)(F)F)cc1)c1ccc2[nH]cc(NC(=O)C3CCC3)c2c1` (stereo not shown) [Compound 131, N-(5-(4-(4-(trifluoromethyl)phenyl)butan-2-yl)-1H-indol-3-yl)cyclobutanecarboxamide]: 1000 to 5000 nM.

Turning to `CC(=O)Nc1c[nH]c2ccc(CCCc3ccc(C(F)(F)F)cc3)cc12` [Compound 132, N-(5-(3-(4-(trifluoromethyl)phenyl)propyl)-1H-indol-3-yl)acetamide], the EC50 was in the range of 40 to 200 nM. The same measure for `COC(CCc1ccc2[nH]cc(NC(=O)C3CCC3)c2c1)c1ccc(C(F)(F)F)cc1` (stereo not shown) [Compound 133, N-(5-(3-methoxy-3-(4-(trifluoromethyl)phenyl)propyl)-1H-indol-3-yl)cyclobutanecarboxamide]: 200 to 1000 nM.

For the compound `O=C(Nc1c[nH]c2ccc(CCNc3ccc(C(F)(F)F)cn3)cc12)C1CCC1` [Compound 134, N-(5-(2-((5-(trifluoromethyl)pyridin-2-yl)amino)ethyl)-1H-indol-3-yl)cyclobutanecarboxamide], the EC50 fell in the range of 200 to 1000 nM. The same measure for `O=C(Nc1c[nH]c2ccc(/C=C/Cc3ccc(C(F)(F)F)cc3)cc12)C1CCC1` [Compound 135, (E)-N-(5-(3-(4-(trifluoromethyl)phenyl)prop-1-en-1-yl)-1H-indol-3-yl)cyclobutanecarboxamide]: 200 to 1000 nM; for `CC(=O)Nc1c[nH]c2ccc(OCCc3ccc(C(F)(F)F)cc3)cc12` [Compound 136, N-(5-(4-(trifluoromethyl)phenethoxy)-1H-indol-3-yl)acetamide]: 40 to 200 nM.

Take `CC(Cc1ccc(C(F)(F)F)cc1)Cc1ccc2[nH]cc(NC(=O)C3CCC3)c2c1` (stereo not shown) [Compound 137, N-(5-(2-methyl-3-(4-(trifluoromethyl)phenyl)propyl)-1H-indol-3-yl)cyclobutanecarboxamide]: the EC50 was in the range of 1000 to 5000 nM. Then `CCC(=O)Nc1c[nH]c2ccc(OCc3ccc(C(F)(F)F)cc3)cc12` [Compound 138, N-(5-((4-(trifluoromethyl)benzyl)oxy)-1H-indol-3-yl)propionamide], with 200 to 1000 nM; and `O=C(Nc1c[nH]c2ccc(CCCc3ccc(C(F)(F)F)cc3)cc12)C1CCC1` [Compound 139, N-(5-(3-(4-(trifluoromethyl)phenyl)propyl)-1H-indol-3-yl)cyclobutanecarboxamide], with 40 to 200 nM.

With `CC(C)(C)OC(=O)N1CCC(CCOc2ccc3[nH]cc(NC(=O)C4CCC4)c3c2)CC1` [Compound 140, tert-butyl 4-(2-((3-(cyclobutanecarboxamido)-1H-indol-5-yl)oxy)ethyl)piperidine-1-carboxylate], the EC50 fell in the range of 200 to 1000 nM. Then `O=C(Nc1c[nH]c2ccc(CCc3ccc(C(F)(F)F)cc3)cc12)C1CCC1` [Compound 141, N-(5-(4-(trifluoromethyl)phenethyl)-1H-indol-3-yl)cyclobutanecarboxamide], with 1000 to 5000 nM; and `O=C(Nc1c[nH]c2ccc(OCCc3ccc(C(F)(F)F)nc3)cc12)C1CCC1` [Compound 142, N-(5-(2-(6-(trifluoromethyl)pyridin-3-yl)ethoxy)-1H-indol-3-yl)cyclobutanecarboxamide], with 200 to 1000 nM; and `CCO/C=C/c1ccc2[nH]cc(NC(=O)C3CCC3)c2c1` [Compound 143, (E)-N-(5-(2-ethoxyvinyl)-1H-indol-3-yl)cyclobutanecarboxamide], with 1000 to 5000 nM.

As for `O=C(Nc1c[nH]c2ccc(/C=C/c3ccc(C(F)(F)F)cc3)cc12)C1CCC1` [Compound 144, (E)-N-(5-(4-(trifluoromethyl)styryl)-1H-indol-3-yl)cyclobutanecarboxamide], the EC50 was 5000 to 100000 nM. The same measure for `O=C(Nc1c[nH]c2ccc(CCOc3ccc(C(F)(F)F)cc3)cc12)C1CCC1` [Compound 145, N-(5-(2-(4-(trifluoromethyl)phenoxy)ethyl)-1H-indol-3-yl)cyclobutanecarboxamide]: 200 to 1000 nM.

The record behind these values is patent US12503436B2, “Compounds and compositions for treating conditions associated with STING activity” (NOVARTIS PHARMA AG, priority 2021, dated 2025).
